The subject of one test is SKOV-3 cells. The test is described as follows: SKOV-3 cell number, cell death and apoptosis markers (trypan blue, Western blot). The test is classed as cell-based, human. The note with it: 30 μM, 72 hours. On the technique in general: In western blotting, separated proteins are transferred to a membrane and probed.
The subject of another test is A2780. The test is described as follows: Antiproliferative effect against A2780 (GI50). The test is classed as cell-based. The note with it: Homo sapiens, 72 hours of treatment, cell count. The procedure: (§1) SKOV-3, A2780 and A2780 CIS were cultured and maintained, as previously described,[50] at 37 °C in RPMI 1640 medium (Euroclone) supplemented with 10% fetal bovine serum (FBS; Euroclone), L-glutamine and penicillin/streptomycin (SIGMA-ALDRICH). OVCA433, HEK-293T, HeLa, HCCLM3, SK-Hep-1, MCF-7, A549 and HCT-116 cells were maintained in DMEM medium (Euroclone) containing 10% FBS (Euroclone), L-glutamine and penicillin/streptomycin (SIGMA-ALDRICH). Wi-38 cells were cultured in DMEM medium (Euroclone) supplemented with 10% FBS (Euroclone), L-glutamine and penicillin/streptomycin (SIGMA-ALDRICH), and 1% non-essential amino acids (NEAA; Euroclone). The cultures were maintained in a constant temperature incubator at 37 °C with 5% CO2. […] Once cell adhesion had been promoted, the compounds were added to the culture medium. After 72 hours of treatment, the cells were counted, and the data analyzed by linear regression. Each experiment was carried out three times in triplicate and three separate cell counts were made for each sample. […] Afterwards, the concentration range was narrowed to the relative value obtained in the first evaluation in order to obtain an accurate value.

The next test concerns miR-21-5p biogenesis. The test is described as follows: miR-21-5p luciferase reporter (psi-R21 / psi-CTRL) in HeLa cells. It counts as cell-based, human. The procedure: HeLa cells were transfected with 10 ng of psi-R21 or psi-CTRL using Lipofectamine™ 2000 (Thermo Fisher Scientific) and after 48 hours were treated with either enoxacin or 33 at 20 μM and 50 μM. After 6 hours Renilla luciferase (RLuc) and firefly luciferase (FLuc) activities were measured using the Dual-Luciferase® Reporter Assay System (Promega), following the manufacturer's instructions, and GloMax® Discover Microplate Reader (Promega).
The binding site for miR-21 was cloned into psiCHECK™-2 Vector (Promega), downstream the Renilla cDNA, by inverted PCR using the following oligonucleotides: 21MRE_FW […]; 21MRE_REV […]. The resulting construct was named psi-R21.
(In general: A reporter such as luciferase makes a cellular process visible.)

The next test concerns OVCA433. The test is described as follows: Antiproliferative effect against OVCA433 (GI50). The test is classed as cell-based. The note with it: Homo sapiens, 72 hours of treatment, cell count. The procedure: as §1
A further test has as its system A2780 cells. The test is described as follows: A2780 cell number, cell death and apoptosis markers (trypan blue, Western blot). It counts as cell-based, human. The source says: […] […] Total cell number and viability have been assessed using Trypan Blue Solution (Thermo Fisher Scientific) and Countess™ 3 Automated Cell Counter (Thermo Fisher Scientific).
(§2) Lysates were loaded on 4–12% bis–tris-acrylamide gel (Life Technologies) and transferred to a nitrocellulose membrane. The membrane was blocked in 5% milk and hybridized with α-TRBP (15753-1-AP Proteintech), α-GAPDH (sc-25778, Santa Cruz Biotechnology), α-c-PARP (Bioss Antibodies, BSM-52408R), α-BCLXL (mAb #2764, Cell Signaling Technology) and α-β-actin (A3854, Sigma) antibodies. All the images were captured using the ChemiDocTM Touch Imaging System (Bio-Rad), and the densitometric analyses were performed using the associated Image Lab software (Bio-Rad).

A further test concerns miR-21. The test is described as follows: miR-21 expression in HeLa cells (qRT-PCR). The note with it: 50 μM, 6 hours. It counts as cell-based, human. The procedure: Total RNA was extracted using the Direct-zol RNA MiniPrep kit (Zymo Research) with on-column DNase treatment, according to the manufacturer's instructions. Reverse transcription was carried out with SuperScript VILO cDNA Synthesis Kit (Life Technologies) and the cDNA samples were analyzed by qRT-PCR using PowerUp SYBR Green Master Mix (Thermo Fisher Scientific). For miR-21 expression analysis total RNA was retrotranscribed using miRCURY® LNA® RT Kit (Qiagen) and the cDNA was analyzed by using miRCURY® LNA® miRNA PCR Assay (Qiagen). The oligonucleotides used are the following: GAPDH_FW […]; GAPDH_REV […]; ATP5O_FW […]; ATP5O_REV […]; hsa-miR-21-5p miRCURY LNA miRNA PCR Assay (YP00204230); U6 snRNA (v2) miRCURY LNA miRNA PCR Assay (YP02119464).
A general note: Quantitative PCR measures a nucleic acid by following its amplification.

Another test concerns the target T1, TRBP (Homo sapiens, UniProt Q15633).
T1 sequence (Q15633 1-366): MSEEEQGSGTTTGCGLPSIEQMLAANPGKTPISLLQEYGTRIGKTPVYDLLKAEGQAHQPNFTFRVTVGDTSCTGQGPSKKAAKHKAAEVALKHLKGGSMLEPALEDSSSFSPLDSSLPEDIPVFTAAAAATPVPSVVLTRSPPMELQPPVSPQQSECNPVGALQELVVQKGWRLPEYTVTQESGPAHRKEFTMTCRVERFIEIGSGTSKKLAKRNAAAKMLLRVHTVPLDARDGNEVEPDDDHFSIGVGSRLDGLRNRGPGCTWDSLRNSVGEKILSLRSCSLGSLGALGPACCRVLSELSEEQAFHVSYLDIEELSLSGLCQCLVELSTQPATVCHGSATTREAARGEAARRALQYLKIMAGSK
The test is described as follows: Cellular thermal shift assay of TRBP (HEK-293T lysates, Western blot). The arrangement: endogenous in cells; host or cells: HEK-293T. It counts as binding. The protocol: HEK-293T cells were harvested in PBS supplemented with protease inhibitor cocktail (complete, EDTA-free, Roche). Cell suspensions were freeze-thawed three times in liquid nitrogen and then centrifuged (20 000g) for 10 min at 4 °C. The lysates were diluted at concentration of 2 μg μL^−1 and then treated with DMSO and 50 μM of 33 or with increasing concentration of 33 for 30 min at 37 °C. After this incubation the lysates were divided into equal parts (50 μL) and heated individually at designated temperatures for 3 min. The heated samples were cooled at room temperature for 3 min and centrifuged (20 000g) for 10 min at 4 °C. The supernatants were transferred to new tubes and analyzed by use for western blotting.
as §2

The next test has as its system distinct OC cell lines. Nature of the test: Anti-OC activity against distinct cell lines (GI50 range). It counts as cell-based. The note with it: Homo sapiens; range over the OC cell lines tested. The procedure: Once cell adhesion had been promoted, the compounds were added to the culture medium. After 72 hours of treatment, the cells were counted, and the data analyzed by linear regression. Each experiment was carried out three times in triplicate and three separate cell counts were made for each sample.
Afterwards, the concentration range was narrowed to the relative value obtained in the first evaluation in order to obtain an accurate value.

`O=C(O)c1cn(C2CC2)c2cc(N3CCc4ccccc4C3)c(F)cc2c1=O` [Compound 33, 1-Cyclopropyl-7-(3,4-dihydroisoquinolin-2(1H)-yl)-6-fluoro-4-oxo-1,4-dihydroquinoline-3-carboxylic acid]: the “c-PARP and Bcl-XL in SKOV-3 cells” value in the test with SKOV-3 cells (Western blot) is listed as “No changes”. For the same compound, in the test on SKOV-3 cells (trypan blue), the “total number of SKOV-3 cells” value is reported as “greatly reduced”. Besides, growth in the test on A2780 was halved (GI50) at 18.1 ± 8.25 µM. In addition, the “miRNA enhancing effect: Renilla luciferase activity, psi-R21 construct” value in the test on miR-21-5p biogenesis (50 μM, 6 hours) is given as “decrease in Renilla luciferase activity”. The “Renilla luciferase activity, control construct psi-CTRL” value with miR-21-5p biogenesis (construct lacking the miR-21-5p binding site) is on record as “no significant variation”. The same compound showed a 50% growth inhibitory concentration (GI50) in the test on OVCA433 of 31 ± 6.75 µM. Further, in the test on A2780 cells (30 μM, 72 hours, Western blot), the “Bcl-XL protein in A2780 cells” value is listed as “downregulation” and the “cleaved PARP1 (c-PARP) levels in A2780 cells” value is “increased levels of cleaved PARP1”. In the test on A2780 cells (30 μM, 72 hours, trypan blue), the “percentage of dead A2780 cells” value is listed as “increased to a great extent” and the “total number of A2780 cells” value was “greatly reduced”. Moreover, the “effect of 33 in combination with cisplatin on A2780 proliferation” value in the test on A2780 cells (33 30 μM + cisplatin 1 μM, 48 hours) was “more pronounced inhibitory effect on A2780 proliferation”. Moreover, in the test on miR-21, the “miR-21 level in HeLa cells” value was “Upregulation of miR-21”. At TRBP (50 μM, different temperatures), the “thermal shift of TRBP versus DMSO” value was “significant thermal shift”. Besides, on TRBP (increasing concentration, 55 °C), the “concentration dependency of TRBP destabilization” value is “destabilization of TRBP in a concentration-dependent manner”. The compound further had a GI50 with distinct OC cell lines of 13.5 to 31 µM.

As a reminder, the GI50 is the concentration at which growth is held to half of that of the control.

The record behind these values is paper PMC11467779, “New anti-ovarian cancer quinolone derivatives acting by modulating microRNA processing machinery” (RSC Medicinal Chemistry, 2024).
